{"source": "patent US20060252698A1", "about": "“Compounds for inhibiting cathepsin activity” (priority 2005, published 2006)", "origin": "cited, not measured here", "system": "melanoma A375 tumors", "conditions": "melanoma A375 tumors implanted into the left ventricle of the heart; cited from earlier work"}
{"smiles": "CN(C)C(=O)[C@H](Cc1ccccc1)NC(=O)[C@H]1O[C@@H]1C(=O)NCCc1ccccn1", "note": "[CLIK-148]", "values": [{"measurement": "distant bone metastasis to the femur and tibia", "value": "reduced distant bone metastasis"}]}
